Earlier results as cited in article PMC7522491 (Molecular Metabolism, 2020).
Where no end group is shown, it is not given here.

Experiments:
[1] = administration in mice
[2] = infusion into the portal circulation, dogs

| Compound | blood insulin levels / insulin clearance [1] | hepatic insulin clearance [2] |
| --- | --- | --- |
| glucagon-like peptide-1 (HAEGTFTSDVSSYLEGQAAKEFIAWLVKGR; ends and bridges not checked; UniProt P55095 98-127, looked up) [GLP-1, incretin hormone administered in mice (literature)] | increased blood insulin levels in part by reducing insulin clearance | – |
| CCCCCCCC/C=C\CCCCCCCC(=O)O [oleate] | – | suppressed hepatic insulin clearance |
